Measurements reported in patent publication US5998433A, “Condensed compounds, their production and use” (Takeda Chemical Industries, Ltd., priority 1994, dated 1999).
Structures can show the parent of a compound that is named as a salt.

Legend:
[1] = tested on: Candida glabrata IFO 0622; test: Antifungal activity (agar plate dilution method), organism D; format: cell-based; conditions: Nakaseomyces glabratus, IFO0622, 35° C., 20 hours, pH 7.0
Method: (§1) Determination of Antifungal Activity (Agar Plate Dilution Method)
(§2) RPMI 1640 (Gibco BRL) was dissolved in 0.3 M MOPS buffer, pH 7.0, to obtain a 2-fold dilution; this solution was filtered to remove germ cells (0.45 μm). Separately, 1.4% agar (Wako Pure Chemical Industries) was thermally sterilized (121° C., 15 minutes). This agar was mixed with an equal amount of the above 2-fold diluted RPMI 1640 (0.15 M MOPS, pH 7.0). To 9.9 ml of this RPMI 1640 (0.15 M MOPS, pH 7.0)-0.7% agar medium, 0.1 ml of a 100-fold diluted DMSO solution of the test drug was added; this mixture was prepared as an agar plate in a petri dish 9 cm in diameter. The drug (dissolved in DMSO to 100-fold dilution) was used in a series of 2-fold dilutions of a starting concentration of 64 μg/ml in the agar medium. For drug-free control, an agar medium containing 0.1 ml of DMSO or […] of sterile water was prepared. An inoculum of frozen cells was diluted with physiological saline and spot inoculated onto the agar medium (0.005 ml; 700-15,000 cfu) using a microplanter (Sakuma Seisakusho), followed by cultivation at 35° C. for 20 hours. Antifungal activity was assessed macroscopically; the minimum concentration for complete growth inhibition was expressed as MIC (minimum growth inhibitory concentration).

[2] = tested on: Candida tropicalis IFO 10241; test: Antifungal activity (agar plate dilution method), organism C; format: cell-based; conditions: IFO10241, 35° C., 20 hours, pH 7.0
Method: as §1, §2

[3] = tested on: Candida tropicalis IFO 0587; test: Antifungal activity (agar plate dilution method), organism B; format: cell-based; conditions: IFO0587, 35° C., 20 hours, pH 7.0
Method: as §1, §2

[4] = tested on: Candida albicans IFO 0583; test: Antifungal activity (agar plate dilution method), organism A; format: cell-based; conditions: IFO0583, 35° C., 20 hours, pH 7.0
Method: as §1, §2

Candida krusei IFO 0584 = test: Antifungal activity (agar plate dilution method), organism E; format: cell-based; conditions: Pichia kudriavzevii, IFO0584, 35° C., 20 hours, pH 7.0
Method: as §1, §2

[5] = tested on: Aspergillus fumigatus IFO 6344; test: Antifungal activity (agar plate dilution method), organism H; format: cell-based; conditions: IFO6344, 35° C., 20 hours, pH 7.0
Method: as §1, §2

[6] = target: T1, 2,3-oxidosqualene cyclase (Rattus norvegicus, UniProt P48450); test: Inhibition of 2,3-oxidosqualene cyclase activity (crude rat liver enzyme, lanosterol production, GC/Mass); format: biochemical; conditions: 37° C., 20 minutes, pH 7.5; read-out: Oxidosqualene Cyclase Inhibitory Activity IC50
T1 construct: The supernatant was thus obtained as a crude enzyme solution; from tissue; host or cells: liver of male SD rat, microsome fraction solubilised with n-dodecyl beta-D-maltoside
T1 sequence (P48450 1-733): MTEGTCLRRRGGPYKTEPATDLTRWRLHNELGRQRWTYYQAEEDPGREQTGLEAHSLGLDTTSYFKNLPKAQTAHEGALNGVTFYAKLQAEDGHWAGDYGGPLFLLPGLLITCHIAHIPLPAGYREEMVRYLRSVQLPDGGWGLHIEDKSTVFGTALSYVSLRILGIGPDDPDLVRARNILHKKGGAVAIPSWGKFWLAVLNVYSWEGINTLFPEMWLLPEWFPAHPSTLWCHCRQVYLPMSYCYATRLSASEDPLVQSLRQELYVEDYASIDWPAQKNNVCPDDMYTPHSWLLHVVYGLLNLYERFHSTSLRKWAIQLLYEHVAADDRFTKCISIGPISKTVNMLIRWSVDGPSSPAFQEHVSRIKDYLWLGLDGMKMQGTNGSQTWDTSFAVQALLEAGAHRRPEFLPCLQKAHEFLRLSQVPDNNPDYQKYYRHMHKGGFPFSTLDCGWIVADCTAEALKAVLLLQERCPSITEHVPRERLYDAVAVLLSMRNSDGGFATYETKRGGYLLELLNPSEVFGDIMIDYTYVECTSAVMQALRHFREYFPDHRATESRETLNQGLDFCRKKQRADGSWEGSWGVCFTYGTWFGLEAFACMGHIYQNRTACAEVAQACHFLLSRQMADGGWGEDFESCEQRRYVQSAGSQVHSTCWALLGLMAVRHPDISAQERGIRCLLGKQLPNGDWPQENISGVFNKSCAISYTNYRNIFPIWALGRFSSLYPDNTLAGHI
Method: Inhibition of 2,3-oxidosqualene Cyclase Activity
1) Preparation of Crude Rat Enzyme
After a male SD rat (6 weeks of age) was sacrificed by bleeding, the liver was excised. About 50 g of the liver was washed with ice-cold physiological saline and homogenized in 75 ml of ice-cold buffer [100 mM potassium phosphate buffer (pH 7.4), 15 mM nicotinamide, 2 mM MgCl2 ] and centrifuged at 10,000×g for 20 minutes (4° C.). The resulting supernatant was further centrifuged at […] for 90 minutes (4° C.) and the resulting sediment was suspended in ice-cold 100 mM potassium phosphate buffer (pH 7.4), and again centrifuged at 105,000×g for 90 minutes (4° C.). […]
To 200 μl of a reaction mixture containing […] 2,3-oxidosqualene, 50 mM Tris-HCl (pH 7.5), 0.5 mM EDTA, 0.5 mM dithiothreitol, 0.1% Tween 80, 0.25% n-dodecyl β-D-maltoside and the test drug, the crude enzyme (protein content 40 μg) was added and incubated at 37° C. for 20 minutes. […] The resulting lanosterol was quantitated with the cholestane as internal standard (gas chromatograph: Yokogawa-Hewlett-Packard HP-5890J; column: Yokogawa-Hewlett-Packard ULTRA-1, 0.32 mm dia., 0.52μ, 10 m; mass analyzer: JEOL JMS-DX303/DA5000). […]

Candida krusei IFO 1162 = test: Antifungal activity (agar plate dilution method), organism F; format: cell-based; conditions: Pichia kudriavzevii, IFO1162, 35° C., 20 hours, pH 7.0
Method: as §1, §2

Candida utilis IFO 0619 = test: Antifungal activity (agar plate dilution method), organism G; format: cell-based; conditions: Williopsis jadinii, IFO0619, 35° C., 20 hours, pH 7.0
Method: as §1, §2

[7] = tested on: Aspergillus niger IFO 4414; test: Antifungal activity (agar plate dilution method), organism I; format: cell-based; conditions: IFO4414, 35° C., 20 hours, pH 7.0
Method: as §1, §2

[8] = tested on: Cholesterogenesis in Rat Liver; test: Inhibition of cholesterogenesis in rat liver ([14C] acetic acid incorporation); format: in vivo, male Sprague-Dawley rats; conditions: by stomach tube, lower values indicate higher inhibitory activity
Method: Inhibition of Cholesterogenesis in Rat Liver
An aqueous solution of the test drug was administered, by a stomach tube, to male Sprague-Dawley rats at 5 weeks of age; 1 hour later, [^14 C] acetic acid was intravenously administered at a dose of 10 μCi per animal. One hour later, the animals were bled, livers were excised and a portion of liver was treated with a chloroform:methanol mixture to extract lipids. After the lipid fraction was saponified, sterol was extracted with petroleum ether, precipitated using digitonin and the radioactivity in the precipitate fraction was determined using a scintillation counter. The control group orally received 0.5% methyl cellulose solution alone.
The results are shown in Table 3 (lower percent control values indicate higher cholesterol synthesis inhibitory activity).

LDL receptor = test: Low-density lipoprotein (LDL) receptor-increasing activity in HepG2 cells; format: cell-based, human; conditions: 20 hours, mean ± SD (n = 3)
Method: Determination of Low-density Lipoprotein (LDL) Receptor-increasing Activity
Human hepatoma cell line HepG2 was seeded to 96-multiwell plates (10^4 cells/well) and cultured for 5 days in Dulbecco's minimal essential medium (DMEM) medium supplemented with 10% inactivated fetal bovine serum, followed by 20 hours of pretreatment in 100 μl of DMEM medium containing 10% lipoprotein-deficient fetal bovine serum and the test compound. After being washed with Dulbecco's phosphate-buffered saline (PBS), the cells were fixed in 4% formalin at room temperature for 1 hour. Three hundreds μl of PBS containing 3% bovine serum albumin was added; the mixture was kept standing at 5° C. overnight, after which the PBS was replaced with 50 μl of PBS containing both 5 μg/ml anti-LDL receptor monoclonal antibody (Oncogene Science) and 0.5% bovine serum albumin, followed by incubation at room temperature for 2 hours. After the cells were washed with PBS containing both 0.05% Triton X-100 and 0.5% bovine serum albumin (Triton-containing PBS), 50 μl of 400-fold diluted peroxidase-labeled anti-mouse antibody (produced by BIO-RAD) was added, followed by incubation at room temperature for 1 hour. After the cells were washed with Triton-containing PBS, peroxidase activity was determined using a Peroxidase Assay Kit A (Sumitomo Bakelite Co., Ltd.). LDL receptor-inducing activity was calculated by comparing the peroxidase activity with control activity; data were analyzed for significant difference by Student's t-test. Blank determination was performed in the absence of the anti-LDL receptor monoclonal antibody.

Row | SMILES | MIC [1] [µg/mL] | MIC [2] [µg/mL] | MIC [3] [µg/mL] | MIC [4] [µg/mL] | MIC (Candida krusei IFO 0584) [µg/mL] | MIC [5] [µg/mL] | IC50 [6] [nM] | MIC (Candida krusei IFO 1162) [µg/mL] | MIC (Candida utilis IFO 0619) [µg/mL] | MIC [7] [µg/mL] | Cholesterol synthesis in rat liver, % of control ([8]; 30 mg/kg) [% Control] | LDL Receptor Expression (% of Control) (LDL receptor; 0.2 μM) | LDL Receptor Expression (% of Control) (LDL receptor; 2 μM, *p < 0.05) | LDL Receptor Expression (% of Control) (LDL receptor; 20 μM, *p < 0.05) | Cholesterol synthesis in rat liver, % of control ([8]; 0.3 mg/kg) [% Control] | Cholesterol synthesis in rat liver, % of control ([8]; 1.0 mg/kg) [% Control]
1 | CN(C)Cc1cc2c(o1)CN(C(=O)CCCCCc1ccccc1)CC2 [Example 5, 1-(2-dimethylaminomethyl-5,7-dihydro-4H-furo[2,3-c]pyridin-6-yl)-6-phenylhexan-1-one hydrochloride] | 32 | 64 | 16 | 16 | 8 | 8 | 15 | 8 | 2 | 8 | 48.9 | – | – | – | – | –
2 | CN(C)Cc1cc2c(o1)CN(C(=O)c1ccc(C(=O)c3ccccc3)cc1)CC2 [Example 11, N,N-dimethyl-[6-(4-benzoylbenzoyl)-4,5,6,7-tetrahydrofuro[2,3-c]pyridin-2-ylmethyl]amine hydrochloride] | – | – | – | – | – | – | 84 | – | – | – | – | 113.3 ± 10.6 % of Control | 143.1 ± 19.7 % of Control | 148.9 ± 20.5 % of Control | 52.6 | 23.3
